According to patent US10202367B2, “Heterocyclic compounds and methods of use thereof” (priority 2014, dated 2019):
Where “and” joins values, the source holds several entries; their conditions need not be identical. Identical values can stand only once.

Columns and labels:
Cell permeability = assay type: in vitro ADME
[1] = Aqueous solubility in PBS; assay type: physicochemical
in vitro = conditions: rat, microsomes, Rat liver microsomes t ½ (min)
[2] = Stability in PBS or PBS/acetonitrile (1/1); assay type: physicochemical; conditions: 10 μM, PBS and PBS/acetonitrile (1/1), pH 7.4, room temperature, after 48 hours
Procedure: (§1) Procedure: […] The mixtures were sampled every hour for eight hours or every 8 hours for 48 hours and analyzed by RP HPLC/UV/HRMS. The analytical RP HPLCUV/HRMS system utilized for the analysis was a Waters Acquity system with UV-detection and mass-detection (Waters SQD). […] Absolute areas under the curve were compared at each time point to determine relative percent compound remaining. The masses of potential adducts were searched for in the final samples to determine if any detectable adduct formed. All samples were prepared in duplicate and the average plotted. Ethacrynic acid, a known Michael acceptor, was used as a positive control. […] To determine the stability of the probe compound to nucleophilic degradation, the compound was dissolved in the two solvent systems above in the presence of 50 μM dithiothreitol (DTT) (FIGS. 2A and 2B).

[3] = Stability to nucleophilic degradation in presence of 50 μM dithiothreitol; assay type: physicochemical; conditions: 10 μM, 50 μM DTT, PBS and PBS/acetonitrile (1/1), after 8 hours
Procedure: as §1

HCVsc, genotype 2a = assay type: cell-based, Hepatitis C virus; conditions: 10 μM
GT 2a replicon RNA = assay type: cell-based, Hepatitis C virus
[4] = test system: HCV replicon (GT 2a) cells; assay type: cell-based, Hepatitis C virus
HCVpp GT 1a = test: HCVpp entry assay; assay type: cell-based, Hepatitis C virus; conditions: Huh7.5.1 cells
VSVpp = assay type: cell-based, vesicular stomatitis virus
HCVcc-RLuc = HCVcc-RLuc assay, combination of compound 3 with anti-HCV drugs (CalcuSyn / MacSynergy II); assay type: cell-based, Hepatitis C virus; conditions: combination

Structure (SMILES) | Permeability (le^−6 cm/s) (Cell permeability) | Sol. [1] [µg/mL] | half-life (in vitro) [min] | other results
CCN(CC)CCCCNC(=O)C1CCN(Cc2nc(-c3cc(OC)cc(OC)c3)oc2C)CC1 [Compound 8] | 10.4 | >72.0 |  | 
Cc1ccccc1-c1nc(CN2CCC(C(=O)NCCN3CCCCC3)CC2)c(C)o1 [Compound 11] | 987.3 | 47 |  | 
Cc1ccccc1-c1nc(CN2CCC[C@@H](C(=O)NCCCN3C[C@H](C)C[C@H](C)C3)C2)c(C)o1 [Compound 67] | 864.8 | 57.8 | 3.9 | 
Cc1cccc(Cl)c1-c1nc(CN2CCC(C(=O)NCCCN3C[C@H](C)C[C@H](C)C3)CC2)c(C)o1 [Compound 1, 1-((2-(2-Chloro-6-methylphenyl)-5-methyloxazol-4-yl)methyl)-N-(3-(cis-3,5-dimethylpiperidin-1-yl)propyl)piperidine-4-carboxamide] |  | >74.0 |  | solubility ([1]; phosphate buffered saline (PBS), aqueous buffer, PBS, pH 7.4, room temperature (23° C.)): > 74 µg/mL and > 147 µM; sample still detected in the supernatant [2]: greater than 97%; degradation in presence of dithiothreitol [3]: no measurable degradation
Cc1oc(-c2c(C)c(C)c(C)c(C)c2C)nc1CN1CCC(C(=O)NCCCN2C[C@H](C)C[C@H](C)C2)CC1 [Compound 56] | 455.2 |  |  | 
CC1CCCN(CCCNC(=O)C2CCN(Cc3oc(-c4cc(C(F)(F)F)cc(C(F)(F)F)c4)nc3C(F)(F)F)CC2)C1 (centres unmarked) [Compound 69] | >1397 |  | 5.7 | 
Cc1ccccc1-c1nc(CC2CCC[C@@H](C(=O)CCCCN3C[C@H](C)C[C@H](C)C3)C2)c(C)o1 (some centres unmarked) [Compound 66] | 864.8 | 57.8 | 3.9 | 
C[C@@H]1C[C@H](C)CN(CCCNC(=O)C2CCN(Cc3oc(-c4cc(C(F)(F)F)cc(C(F)(F)F)c4)nc3C(F)(F)F)CC2)C1 [Compound 68] | 1061 | 2.5 | 16.4 | 
Cc1ccccc1-c1nc(CN2CCC(C(=O)NCCCN3C[C@H](C)C[C@H](C)C3)CC2)c(C)o1 [Compound 3] |  | 53.9 |  | inhibitory activity on HCVsc infection level (HCVsc, genotype 2a): dramatic inhibitory activities; inhibitory effect on HCV replication, transient transfection with GT 2a replicon RNA (GT 2a replicon RNA; 10 μM): no inhibitory effect; % RLU at 10 μM, HCV subgenomic replicon Transient GT 2a (GT 2a replicon RNA; Huh7.5.1 cells, 48 h): 105 % RLU; inhibitory effect on HCV replication, GT 2a replicon cell line ([4]; 10 μM): no inhibitory effect; % RLU at 10 μM, HCV subgenomic replicon GT 2a cell line ([4]; 48 h): 103 % RLU; % RLU at 10 μM, HCVpp GT 1a (HCVpp GT 1a): < 30 % RLU; % RLU at 10 μM, VSV pp (VSVpp): ~50 % RLU; antiviral effect in combination with ribavirin, interferon, telaprevir, daclatasvir, cyclosporin A and 2′-C-methylcytidine (HCVcc-RLuc): synergistic
